According to US10357537B2, “Cyclotides as immunosuppressive agents” (priority 2011, dated 2019):
Bridge positions count the residues as written; N and C are the ends. Peptide text beside a SMILES is read from it.

How the values were obtained:
[1] = system: spleenocytes restimulated with MOG35-55; assay: Cytokine release of spleenocytes from treated EAE mice, ELISA; assay type: cell-based, mouse
Protocol: FIG. 21. Effect on cytokine release of ex vivo isolated PBMC at day 3. Spleenocytes of sacrificed mice were isolated and restimulated with MOG35-55 (30 μg/mL) for three days or left untreated. Supernatants of these cells were used for analyzing cytokine release in ELISAs. In (A) interleukin 2 release was highest in splenic T-cells isolated from naïve mouse group that were restimulated with MOG, correlating with disease course. […] There was hardly any cytokine IL4 detectable (E), opposing a TH2 immune response, which was expected.
Spleens of sacrificed mice were taken and transferred into a 6 cm Petri Dish with 5 mL sterile PBS. To receive a spleenocyte suspension, spleens were meshed and filtered through 70 μm nylon sieve. Cells were centrifuged at 1200 rpm for 5 minutes and resuspended in RPMI 1640 media supplemented with 10% fetal calf serum (FCS), 2 mM L-glutamine, penicillin (100 U/mL), and streptomycin (100 μg/mL). Spleenocytes were cultivated at a concentration of 3×10^6/mL in a 48-well flat-bottom plate (500 μL/well). Cells were stimulated with 30 μg/mL MOG35-55 or left untreated and incubated at 37° C. for three days. Supernatants and cells were taken stored at −20° C. until further experiments. […] After 12 hours MOG or T20K was added to appropriate wells. Supernatants were stored after 24 hours and after 48 hours at −20° C.
Supernatants of stimulated spleenocytes were analyzed for their IL2, IL17, INFγ, IL4 and IL22 cytokine release using anti-mouse antibodies for ELISA from eBioscience according to the manufacturer's instructions. The color reaction was evaluated at an optical density of 450 nm by the microplate reader Synergy H4 (BioTek).

human primary T-cells = assay: Ca2+ release, Fura-2; assay type: cell-based; conditions: T20K 4 μM
Protocol: FIG. 17. Ca^2+ release in human Jurkat and T-cells. Jurkat cells (A) and T-cells (B) 1×10^6 were loaded with 1 μM Fura-2 and 0.02% Puronic F-127 for 30 minutes at 37° C. Cells were centrifuged for 5 minutes at 1200 rpm and resuspended in media [RPMI 1640 with 10% FCS, penicillin (100 U/mL) and streptomycin ([…])]. 100 μL of cell suspension were transferred to a black 96-well plate with a clear flat-bottom. Briefly before analysis the fluorometer Synergy H4 (BioTek) was tempered to 37° C. The fluorescence time course was then measured with: extinction 340/380 nm and emission 510 nm in 30 seconds intervals, continuously shaking. Ca^2+ influx was initiated by adding compounds to the cells (illustrated by the arrow). To receive maximum Ca^2+ release cells were stimulated with PMA (50 ng/mL) and Ionomycin (500 ng/mL) and T-cells additionally with PHA-L (10 μg/mL). For lowest Ca^2+ levels, cells remained untreated.
Jurkat cells T-cells were treated as described for FIG. 17, supra.

SMILES: CC(C)C[C@@H]1NC(=O)CNC(=O)[C@H](CC(N)=O)NC(=O)[C@H](CCCNC(=N)N)NC(=O)[C@H]([C@@H](C)O)NC(=O)[C@@H]2CSSC[C@@H]3NC(=O)[C@H]([C@@H](C)O)NC(=O)CNC(=O)CNC(=O)[C@H](C(C)C)NC(=O)[C@@H]4CSSC[C@H](NC(=O)[C@H](CCCCN)NC(=O)[C@H](CSSC[C@H](NC(=O)[C@H](C(C)C)NC(=O)[C@@H]5CCCN5C1=O)C(=O)NCC(=O)N[C@@H](CCC(=O)O)C(=O)N[C@@H]([C@@H](C)O)C(=O)N4)NC(=O)CNC(=O)[C@@H]1CCCN1C(=O)[C@H]([C@@H](C)O)NC(=O)[C@H](CC(N)=O)NC3=O)C(=O)N[C@@H](CO)C(=O)N[C@@H](Cc1c[nH]c3ccccc13)C(=O)N1CCC[C@H]1C(=O)N[C@@H](C(C)C)C(=O)N2 [Kalata T20K] (cyclo(CGETCVGGTCNTPGCKCSWPVCTRNGLPV); disulfide 1-15, 5-17, 10-22 (inferred); ring closure inferred)
- IL2 release of spleenocytes from mice treated at day 7 ([1]; T20K (7), after MOG stimulation, vs naive group): IL2 release was lower than in naïve group
- IL17, IL22 and INFγ release of spleenocytes from pre-treated mice ([1]; T20K (-7, 0)): inhibitory effect could also be demonstrated towards the cytokines IL17, IL22 and INFγ in T-cells of T20K (−7, 0) treated mice, although not significantly
- IL2 production of spleenocytes from pre-treated mice ([1]; T20K day -7 or 0, MOG35-55 30 μg/mL, three days): significant inhibition of the IL2 production
- Ca2+ release in human primary T-cells (human primary T-cells): increasing Ca^2+ release
